Target: T1, cedar pollen allergen (Cry j1) (Cryptomeria japonica, UniProt P18632)
T1 sequence (P18632 22-374): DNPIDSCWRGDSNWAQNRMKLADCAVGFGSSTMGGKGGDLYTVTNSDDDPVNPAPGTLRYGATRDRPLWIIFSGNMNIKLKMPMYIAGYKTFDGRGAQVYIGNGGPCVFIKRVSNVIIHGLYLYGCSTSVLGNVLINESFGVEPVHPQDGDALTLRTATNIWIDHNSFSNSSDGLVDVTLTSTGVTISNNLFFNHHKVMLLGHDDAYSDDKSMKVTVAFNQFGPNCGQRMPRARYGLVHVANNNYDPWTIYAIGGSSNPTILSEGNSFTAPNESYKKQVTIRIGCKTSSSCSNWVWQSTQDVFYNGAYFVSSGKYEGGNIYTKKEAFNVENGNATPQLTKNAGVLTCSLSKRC
Test: Function test of the sample to cedar pollen allergen (Cry j1): allergen adsorption, supernatant measured by sandwich ELISA
Assay type: binding
Procedure: A 1% (by weight/volume) sample solution was prepared from each of the compounds synthesized in Examples 1 to 5, an allergen (Cry j1) dissolved into a phosphate buffer solution was added into the sample solution so as to give 100 ng/mL of the concentration thereof, and then, they were mixed by using a vortex; thereafter, reaction was carried out with shaking the mixture at 4° C. The solution was recovered at the respective predetermined intervals ([…]); and a supernatant thereof after centrifugal separation was analyzed as to the allergen concentration (A) by using a sandwich ELISA method (Enzyme-Linked Immunosorbent Assay). […] Reduction rate (%)=(B−A)/B×100
Specific procedure of the sandwich ELISA method will now be described. Anti-Cry j1 antibody is immobilized in each well of a microplate; and after cleaning it, post coating thereof is conducted. After further cleaning, a sample solution or a standard allergen solution is added thereinto to carry out a primary reaction. After cleaning thereof, an anti-Cry j1 biotin-labeled antibody is added thereinto to carry out a secondary reaction. After further cleaning thereof, an enzyme reagent streptavidin HRP is added thereinto; and after cleaning thereof, an o-phenylenedimaine substrate is added thereinto to carry out a chromogenic reaction. After termination of the reaction by adding dilute sulfuric acid, absorbance at the wavelength of 490 nm is measured by using a microplate reader. From a calibration curve predetermined by using the standard allergen solution, allergen concentration in each sample solution is obtained.

[1] = 1% (w/v) sample solution, 100 ng/mL Cry j1, 4° C., at 5 minutes

| Substance | allergen reduction rate (conditions similar to Test Example 1, after 60 minutes) | allergen reduction rate [1] |
| --- | --- | --- |
| C60(OH)44.8H2O [reference compound] | 6.2% |  |
| C60Cl5 (OH)15.5H2O [Example 4] |  | 90% |
| C60Cl15(OH)15.9H2O [Example 3] |  | 90% |

— patent US8987526B2, “Partially halogenated, hydroxylated fullerene and allergen adsorbent using the same” (Osaka University, priority 2010, dated 2015)
